From ChEMBL document CHEMBL3044788, “α-(Substituted-phenoxyacetoxy)-α-heterocyclylmethylphosphonates: synthesis, herbicidal activity, inhibition on pyruvate dehydrogenase complex (PDHc), and application as postemergent herbicide against broadleaf weeds” (J Agric Food Chem, 2013)

What was measured:
Amaranthus blitum [1] = assay: Herbicidal activity against Amaranthus blitum assessed as relative growth inhibition at 300 g/ha in greenhouse by post-emergence herbicidal activity assay; type: functional; conditions: read-out: GI
Zea mays [2] = assay: Herbicidal activity against Zea mays (maize) assessed as relative growth inhibition at 1200 g/ha in greenhouse by postemergence herbicidal activity assay; type: organism-based; conditions: in vivo, other
[3] = target: T1, Pyruvate dehydrogenase complex (Pisum sativum, UniProt P52902+P52904); assay: Inhibition of Pisum sativum (pea) PDHc by spectrophotometric assay; type: protein-complex assay, Lathyrus oleraceus
T1 sequence (P52902 whole entry): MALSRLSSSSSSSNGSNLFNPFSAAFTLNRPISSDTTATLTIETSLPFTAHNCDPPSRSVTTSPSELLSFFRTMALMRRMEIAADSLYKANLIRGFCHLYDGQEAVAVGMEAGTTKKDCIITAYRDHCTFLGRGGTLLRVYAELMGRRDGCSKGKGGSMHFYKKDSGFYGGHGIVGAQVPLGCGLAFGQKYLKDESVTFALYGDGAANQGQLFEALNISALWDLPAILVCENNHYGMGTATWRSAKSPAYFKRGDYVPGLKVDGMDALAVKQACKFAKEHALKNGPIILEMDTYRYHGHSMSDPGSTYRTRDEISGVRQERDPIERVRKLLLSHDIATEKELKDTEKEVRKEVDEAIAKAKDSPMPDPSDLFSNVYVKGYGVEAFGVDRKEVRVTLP
T1 sequence (P52904 whole entry): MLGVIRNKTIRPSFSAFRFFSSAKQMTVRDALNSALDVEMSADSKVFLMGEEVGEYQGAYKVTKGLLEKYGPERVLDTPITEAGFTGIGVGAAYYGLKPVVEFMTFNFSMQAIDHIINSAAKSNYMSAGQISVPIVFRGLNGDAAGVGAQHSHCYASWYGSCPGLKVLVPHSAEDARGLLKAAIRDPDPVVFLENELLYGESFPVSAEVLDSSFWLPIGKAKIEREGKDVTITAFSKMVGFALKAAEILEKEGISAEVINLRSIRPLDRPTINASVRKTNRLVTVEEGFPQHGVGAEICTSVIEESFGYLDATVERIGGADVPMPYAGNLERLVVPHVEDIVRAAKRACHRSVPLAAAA

Zea mays [4] = assay: Herbicidal activity against Zea mays (maize) assessed as relative growth inhibition at 200 g/ha in greenhouse by postemergence herbicidal activity assay; type: organism-based; conditions: in vivo, other
Chenopodium album [5] = assay: Herbicidal activity against Chenopodium album assessed as relative growth inhibition at 100 g/ha in greenhouse by post-emergence herbicidal activity assay; type: functional; conditions: read-out: GI
Polygonum aviculare [6] = assay: Herbicidal activity against Polygonum aviculare assessed as relative growth inhibition at 900 g/ha in greenhouse by post-emergence herbicidal activity assay; type: functional; conditions: read-out: GI
Polygonum aviculare [7] = assay: Herbicidal activity against Polygonum aviculare assessed as relative growth inhibition at 50 g/ha in greenhouse by post-emergence herbicidal activity assay; type: functional; conditions: read-out: GI
Brassica juncea = assay: Herbicidal activity against two to three-leaf stage Brassica juncea assessed as inhibition of plant growth at 450 g/ha in greenhouse by post-emergence herbicidal activity assay; type: functional; conditions: read-out: GI
Oryza sativa [8] = assay: Herbicidal activity against Oryza sativa (rice) assessed as relative growth inhibition at 600 g/ha in greenhouse by postemergence herbicidal activity assay; type: organism-based; conditions: in vivo, other
Amaranthus retroflexus [9] = assay: Herbicidal activity against 2 to 3 leaf stage Amaranthus retroflexus assessed as inhibition of plant growth at 150 g/ha in greenhouse by postemergence herbicidal activity assay; type: functional; conditions: post-emergence, read-out: GI
Chenopodium album [10] = assay: Herbicidal activity against Chenopodium album assessed as relative growth inhibition at 300 g/ha in greenhouse by post-emergence herbicidal activity assay; type: functional; conditions: read-out: GI
[11] = system: Brassica rapa subsp. oleifera; assay: Herbicidal activity against two to three-leaf stage Brassica rapa subsp. oleifera assessed as inhibition of plant growth at 150 g/ha in greenhouse by postemergence herbicidal activity assay; type: functional; conditions: post-emergence, read-out: GI
Beta vulgaris [12] = assay: Herbicidal activity against Beta vulgaris assessed as relative growth inhibition at 450 g/ha in greenhouse by post-emergence herbicidal activity assay; type: functional; conditions: read-out: GI
Eclipta prostrata = assay: Herbicidal activity against two to three-leaf stage Eclipta prostrata assessed as inhibition of plant growth at 150 g/ha in greenhouse by post-emergence herbicidal activity assay; type: functional; conditions: read-out: GI
Amaranthus spinosus [13] = assay: Herbicidal activity against Amaranthus spinosus assessed as relative growth inhibition at 1200 g/ha in greenhouse by postemergence herbicidal activity assay; type: functional; conditions: post-emergence, read-out: GI
Amaranthus blitum [14] = assay: Herbicidal activity against Amaranthus blitum assessed as relative growth inhibition at 600 g/ha in greenhouse by post-emergence herbicidal activity assay; type: functional; conditions: read-out: GI
Beta vulgaris [15] = assay: Herbicidal activity against Beta vulgaris assessed as relative growth inhibition at 50 g/ha in greenhouse by post-emergence herbicidal activity assay; type: functional; conditions: read-out: GI
Beta vulgaris [16] = assay: Herbicidal activity against Beta vulgaris assessed as relative growth inhibition at 1200 g/ha in greenhouse by post-emergence herbicidal activity assay; type: functional; conditions: read-out: GI
Polygonum aviculare [17] = assay: Herbicidal activity against Polygonum aviculare assessed as relative growth inhibition at 1200 g/ha in greenhouse by post-emergence herbicidal activity assay; type: functional; conditions: read-out: GI
Amaranthus blitum [18] = assay: Herbicidal activity against Amaranthus blitum assessed as relative growth inhibition at 450 g/ha in greenhouse by post-emergence herbicidal activity assay; type: functional; conditions: read-out: GI
Polygonum aviculare [19] = assay: Herbicidal activity against Polygonum aviculare assessed as relative growth inhibition at 200 g/ha in greenhouse by post-emergence herbicidal activity assay; type: functional; conditions: read-out: GI
Amaranthus blitum [20] = assay: Herbicidal activity against Amaranthus blitum assessed as relative growth inhibition at 200 g/ha in greenhouse by post-emergence herbicidal activity assay; type: functional; conditions: read-out: GI
Echinochloa crus-galli = assay: Herbicidal activity against 2 to 3 leaf stage Echinochloa crus-galli (barnyard grass) assessed as inhibition of plant growth at 450 g/ha in greenhouse by postemergence herbicidal activity assay; type: functional; conditions: Echinochloa crus-galli, post-emergence; read-out: GI
Polygonum aviculare [21] = assay: Herbicidal activity against Polygonum aviculare assessed as relative growth inhibition at 100 g/ha in greenhouse by post-emergence herbicidal activity assay; type: functional; conditions: read-out: GI
Beta vulgaris [22] = assay: Herbicidal activity against Beta vulgaris assessed as relative growth inhibition at 600 g/ha in greenhouse by post-emergence herbicidal activity assay; type: functional; conditions: read-out: GI
Amaranthus spinosus [23] = assay: Herbicidal activity against Amaranthus spinosus assessed as relative growth inhibition at 450 g/ha in greenhouse by postemergence herbicidal activity assay; type: functional; conditions: post-emergence, read-out: GI
Chenopodium album [24] = assay: Herbicidal activity against Chenopodium album assessed as relative growth inhibition at 600 g/ha in greenhouse by post-emergence herbicidal activity assay; type: functional; conditions: read-out: GI
Amaranthus spinosus [25] = assay: Herbicidal activity against Amaranthus spinosus assessed as relative growth inhibition at 100 g/ha in greenhouse by postemergence herbicidal activity assay; type: functional; conditions: post-emergence, read-out: GI
Polygonum aviculare [26] = assay: Herbicidal activity against Polygonum aviculare assessed as relative growth inhibition at 600 g/ha in greenhouse by post-emergence herbicidal activity assay; type: functional; conditions: read-out: GI
Zea mays [27] = assay: Herbicidal activity against Zea mays (maize) assessed as relative growth inhibition at 450 g/ha in greenhouse by postemergence herbicidal activity assay; type: organism-based; conditions: in vivo, other
Amaranthus retroflexus [28] = assay: Herbicidal activity against 2 to 3 leaf stage Amaranthus retroflexus assessed as inhibition of plant growth at 450 g/ha in greenhouse by postemergence herbicidal activity assay; type: functional; conditions: post-emergence, read-out: GI
Oryza sativa [29] = assay: Herbicidal activity against two to three-leaf stage Oryza sativa (rice) assessed as inhibition of plant growth at 450 g/ha in greenhouse by postemergence herbicidal activity assay; type: organism-based; conditions: in vivo, other
Amaranthus blitum [30] = assay: Herbicidal activity against Amaranthus blitum assessed as relative growth inhibition at 1200 g/ha in greenhouse by post-emergence herbicidal activity assay; type: functional; conditions: read-out: GI

COP(=O)(OC)C(OC(=O)COc1ccc(Cl)cc1Cl)c1ccco1 (stereo not drawn)
inhibition of growth at 300 g/ha (Amaranthus blitum [1]): 100%
growth inhibition (GI) (Zea mays [2]): 10%
IC50 [3]: 28.3 µM
growth inhibition (GI) (Zea mays [4]): 0%
inhibition of growth at 100 g/ha (Chenopodium album [5]): 90%
inhibition of growth at 900 g/ha (Polygonum aviculare [6]): 100%
inhibition of growth at 50 g/ha (Polygonum aviculare [7]): 70%
inhibition of growth at 450 g/ha (Brassica juncea): 96.5%
growth inhibition (GI) (Oryza sativa [8]): 0%
inhibition of growth at 150 g/ha (Amaranthus retroflexus [9]): 95%
inhibition of growth at 300 g/ha (Chenopodium album [10]): 100%
inhibition of growth at 150 g/ha [11]: 95%
inhibition of growth at 450 g/ha (Beta vulgaris [12]): 100%
inhibition of growth at 150 g/ha (Eclipta prostrata): 90%
inhibition of growth at 1200 g/ha (Amaranthus spinosus [13]): 100%
inhibition of growth at 600 g/ha (Amaranthus blitum [14]): 100%
inhibition of growth at 50 g/ha (Beta vulgaris [15]): 80%
inhibition of growth at 1200 g/ha (Beta vulgaris [16]): 100%
inhibition of growth at 1200 g/ha (Polygonum aviculare [17]): 100%
inhibition of growth at 450 g/ha (Amaranthus blitum [18]): 100%
inhibition of growth at 200 g/ha (Polygonum aviculare [19]): 85%
inhibition of growth at 200 g/ha (Amaranthus blitum [20]): 100%
inhibition of growth at 450 g/ha (Echinochloa crus-galli): 25%
inhibition of growth at 100 g/ha (Polygonum aviculare [21]): 83%
inhibition of growth at 600 g/ha (Beta vulgaris [22]): 100%
inhibition of growth at 450 g/ha (Amaranthus spinosus [23]): 100%
inhibition of growth at 600 g/ha (Chenopodium album [24]): 100%
inhibition of growth at 100 g/ha (Amaranthus spinosus [25]): 90%
inhibition of growth at 600 g/ha (Polygonum aviculare [26]): 100%
growth inhibition (GI) (Zea mays [27]): 0%
inhibition of growth at 450 g/ha (Amaranthus retroflexus [28]): 100%
growth inhibition (GI) (Oryza sativa [29]): 10%
inhibition of growth at 1200 g/ha (Amaranthus blitum [30]): 100%
